From patent publication US20250171437A1 (Agios Pharmaceuticals,Inc., priority 2022, published 2025) come the findings set out here.

The experiment has as its target T1, human PAH with the R408W mutation (A375 R408W cells) (Homo sapiens, UniProt P00439, R408W).
T1 construct: expressed in transfected cells
T1 sequence (P00439 1-452 R408W): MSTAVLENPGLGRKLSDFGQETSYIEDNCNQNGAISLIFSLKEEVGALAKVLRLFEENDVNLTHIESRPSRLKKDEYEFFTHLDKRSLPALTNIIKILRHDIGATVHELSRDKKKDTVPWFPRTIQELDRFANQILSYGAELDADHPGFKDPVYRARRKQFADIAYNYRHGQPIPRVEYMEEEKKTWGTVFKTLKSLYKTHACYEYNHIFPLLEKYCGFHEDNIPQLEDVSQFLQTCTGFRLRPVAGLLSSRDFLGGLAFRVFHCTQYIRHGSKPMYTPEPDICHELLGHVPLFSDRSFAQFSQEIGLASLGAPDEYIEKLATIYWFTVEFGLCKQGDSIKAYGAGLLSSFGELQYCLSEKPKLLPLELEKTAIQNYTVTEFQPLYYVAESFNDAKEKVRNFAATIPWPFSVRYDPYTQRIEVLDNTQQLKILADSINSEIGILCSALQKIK
Nature of the experiment: Cell Based Phenylalanine Flux Assay. As to conditions: 24 hrs with compound, then 20 μM sepiapterin and 800 μM 13C9,15N-Phenylalanine for 4 hours, 13C-Tyrosine by LC-MS, average where tested multiple times. The gist of the method:
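A375 cells stably expressing lentiviral human PAH R408W were treated with compounds (10-point 2-fold dilutions, 0.5% DMSO, duplicate) for 24 h at 37 °C. Then 20 μM sepiapterin and 800 μM 13C9,15N-Phe were added for 4 h; media 13C-Tyr was measured by LC-MS to give AC50.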

Setting [1] is: A375 cells expressing R408W PAH.

On to `O=C(c1cnn2cc(-c3ccccn3)ccc12)N1CCc2[nH]cnc2[C@@H]1c1nc2cc(F)ccc2o1` [Example 82, (R)-(4-(5-fluorobenzo[d]oxazol-2-yl)-6,7-dihydro-1H-imidazo[4,5-c]pyridin-5(4H)-yl)(6-(pyridin-2-yl)pyrazolo[1,5-a]pyridin-3-yl)methanone], for which the AC50 (usually the concentration at which the activity in the assay is half-maximal) (A375 R408W cells) is not below 5 µM.
Regarding `O=C(c1ccn(-c2ccccn2)n1)N1CCc2[nH]cnc2C1c1nc2cccc(F)c2o1` (stereo not drawn), under setting [1], the AC50 is not below 5 µM.
Same read-out and setting: in the case of `COC(C)(C)c1nc(C)c(C(=O)N2CCc3[nH]cnc3C2c2nc3cc(F)ccc3o2)o1` (stereo not drawn) it was not below 5 µM; in that of `Cc1nc(C(C)(C)O)oc1C(=O)N1CCc2[nH]cnc2C1c1nc2ccc(F)cc2o1` (stereo not drawn), 1 to 5 µM.
As to `Cc1ccc2oc([C@H]3c4nc[nH]c4CCN3C(=O)c3nnc(-c4ccccn4)o3)nc2c1` [Example 98, (R)-(4-(5-methylbenzo[d]oxazol-2-yl)-6,7-dihydro-1H-imidazo[4,5-c]pyridin-5(4H)-yl)(5-(pyridin-2-yl)-1,3,4-oxadiazol-2-yl)methanone], the AC50 (A375 R408W cells) was in the range of 1 to 5 µM.
As to `O=C(c1ccnn1C(F)F)N1Cc2[nH]cnc2[C@H]1c1nc2ccccc2o1` [Example 951, (S)-(4-(benzo[d]oxazol-2-yl)-4,6-dihydropyrrolo[3,4-d]imidazol-5(1H)-yl)(1-(difluoromethyl)-1H-pyrazol-5-yl)methanone], the AC50 (A375 R408W cells) was 1 to 5 µM.
For the molecule `O=C(c1ocnc1C(F)F)N1CCc2[nH]cnc2[C@H]1c1nc2cc(Br)ccc2o1` [Example 149, (S)-(4-(5-bromobenzo[d]oxazol-2-yl)-6,7-dihydro-1H-imidazo[4,5-c]pyridin-5(4H)-yl)(4-(difluoromethyl)oxazol-5-yl)methanone], the AC50 (A375 R408W cells) is not above 0.5 µM.
`O=C(c1nnc(-c2ccccn2)o1)N1CCc2[nH]cnc2[C@H]1c1nc2cc(F)cc(F)c2o1` [Example 580, (S)-(4-(5,7-difluorobenzo[d]oxazol-2-yl)-6,7-dihydro-1H-imidazo[4,5-c]pyridin-5(4H)-yl)(5-(pyridin-2-yl)-1,3,4-oxadiazol-2-yl)methanone]: the AC50 (A375 R408W cells) was in the range of 0.5 to 1 µM.
As to `O=C(c1ccnn1C(F)(F)F)N1CCc2[nH]cnc2[C@@H]1c1nc2cc(F)ccc2o1` [Example 262, (R)-(4-(5-fluorobenzo[d]oxazol-2-yl)-6,7-dihydro-1H-imidazo[4,5-c]pyridin-5(4H)-yl)(1-(trifluoromethyl)-1H-pyrazol-5-yl)methanone], the AC50 (A375 R408W cells) is 0.5 to 1 µM.
Turning to `O=C(c1cnco1)N1CCc2[nH]cnc2C1c1nc2ccc(F)cc2o1` (stereo not drawn), the AC50 under setting [1] was not below 5 µM.
As for `O=C(c1ocnc1C1CC1)N1CCc2[nH]cnc2[C@@H]1c1nc2cc(F)ccc2o1` [Example 42, (R)-(4-cyclopropyloxazol-5-yl)(4-(5-fluorobenzo[d]oxazol-2-yl)-6,7-dihydro-1H-imidazo[4,5-c]pyridin-5(4H)-yl)methanone], the AC50 (A375 R408W cells) is 1 to 5 µM.
Turning to `O=C(c1oc(-c2ccccn2)nc1C(F)F)N1CCc2[nH]cnc2[C@H]1c1nc2cccc(F)c2o1` [Example 587, (S)-(4-(difluoromethyl)-2-(pyridin-2-yl)oxazol-5-yl)(4-(7-fluorobenzo[d]oxazol-2-yl)-6,7-dihydro-1H-imidazo[4,5-c]pyridin-5(4H)-yl)methanone], the AC50 (A375 R408W cells) is not above 0.5 µM.
Take `COc1ccc2oc([C@@H]3c4nc[nH]c4CCN3C(=O)c3ocnc3C(F)F)nc2c1` [Example 341, (S)-(4-(difluoromethyl)oxazol-5-yl)(4-(5-methoxybenzo[d]oxazol-2-yl)-6,7-dihydro-1H-imidazo[4,5-c]pyridin-5(4H)-yl)methanone]: where the note is “A375 R408W cells”, the AC50 is not above 0.5 µM.
For `CC(C)(O)c1nc(C(F)F)c(C(=O)N2CCCc3[nH]cnc3C2c2nc3cc(F)ccc3o2)o1` (stereo not drawn), the AC50 under setting [1] lay within 1 to 5 µM.
For `O=C(c1nnc(-c2ccccn2)o1)N1CCc2[nH]cnc2[C@H]1c1nc2cccc(C(F)(F)F)c2o1` [Example 838, (S)-(5-(pyridin-2-yl)-1,3,4-oxadiazol-2-yl)(4-(7-(trifluoromethyl)benzo[d]oxazol-2-yl)-6,7-dihydro-1H-imidazo[4,5-c]pyridin-5(4H)-yl)methanone], where the note is “A375 R408W cells”, the AC50 is not above 0.5 µM.
In the case of `Cn1cnc(-c2nc(C(F)(F)F)c(C(=O)N3CCc4[nH]cnc4[C@@H]3c3nc4cc(F)ccc4o3)o2)c1` [Example 789, (R)-(4-(5-fluorobenzo[d]oxazol-2-yl)-6,7-dihydro-1H-imidazo[4,5-c]pyridin-5(4H)-yl)(2-(1-methyl-1H-imidazol-4-yl)-4-(trifluoromethyl)oxazol-5-yl)methanone], the AC50 (A375 R408W cells) lay in the range of 1 to 5 µM.
As to `CC(C)(O)c1cc(C(=O)N2CCc3[nH]cnc3C2c2nc3c(F)cccc3o2)no1` (stereo not drawn), the AC50 under setting [1] was in the range of 1 to 5 µM.
As to `C[C@H](O)c1nc(C(F)F)c(C(=O)N2CCc3[nH]cnc3[C@@H]2c2nc3c(F)cccc3o2)o1` [Example 228, (4-(difluoromethyl)-2-((S)-1-hydroxyethyl)oxazol-5-yl)((R)-4-(4-fluorobenzo[d]oxazol-2-yl)-6,7-dihydro-1H-imidazo[4,5-c]pyridin-5(4H)-yl)methanone], for the setting “A375 R408W cells”, the AC50 fell in the range of 1 to 5 µM.
Turning to `CC(=O)Cn1cc(C(=O)N2CCc3[nH]cnc3[C@H]2c2nc3cc(F)ccc3o2)cn1` (single isomer, unassigned), the AC50 under setting [1] is not below 5 µM.
Consider `O=C(c1oc(N2CCOCC2)nc1C(F)F)N1CCc2[nH]cnc2[C@@H]1c1nc2cccc(F)c2o1` [Example 647, (R)-(4-(difluoromethyl)-2-morpholinooxazol-5-yl)(4-(7-fluorobenzo[d]oxazol-2-yl)-6,7-dihydro-1H-imidazo[4,5-c]pyridin-5(4H)-yl)methanone], for which the AC50 (A375 R408W cells) was 0.5 to 1 µM.
Still for that read-out and setting: in the case of `O=C(c1oc(N2CCOCC2)nc1C(F)F)N1CCc2[nH]cnc2[C@H]1c1nc2cc(F)ccc2o1` [Example 413, (S)-(4-(difluoromethyl)-2-morpholinooxazol-5-yl)(4-(5-fluorobenzo[d]oxazol-2-yl)-6,7-dihydro-1H-imidazo[4,5-c]pyridin-5(4H)-yl)methanone] it was 0.5 to 1 µM; in that of `CC1CN(C(=O)c2ocnc2C(F)F)[C@H](c2nc3cccc(F)c3o2)c2nc[nH]c21` (single isomer, unassigned) [Example 804], not above 0.5 µM.
Still for that read-out and setting: the figure for `Cn1cc(-c2nnc(C(=O)N3CCc4[nH]cnc4[C@@H]3c3nc4cccc(C(F)(F)F)c4o3)o2)cn1` [Example 829, (R)-(5-(1-methyl-1H-pyrazol-4-yl)-1,3,4-oxadiazol-2-yl)(4-(7-(trifluoromethyl)benzo[d]oxazol-2-yl)-6,7-dihydro-1H-imidazo[4,5-c]pyridin-5(4H)-yl)methanone] is 1 to 5 µM; for `O=C(c1cnc(-c2ccccn2)s1)N1CCc2[nH]cnc2[C@@H]1c1nc2cc(F)ccc2o1` [Example 6, (R)-(4-(5-fluorobenzo[d]oxazol-2-yl)-6,7-dihydro-1H-imidazo[4,5-c]pyridin-5(4H)-yl)(2-(pyridin-2-yl)thiazol-5-yl)methanone] it is 1 to 5 µM.
Same read-out and setting: in the case of `Cc1ccc2oc([C@H]3c4nc[nH]c4CCN3C(=O)c3oc(C(C)(C)O)nc3C)nc2c1` [Example 332, (R)-(2-(2-hydroxypropan-2-yl)-4-methyloxazol-5-yl)(4-(5-methylbenzo[d]oxazol-2-yl)-6,7-dihydro-1H-imidazo[4,5-c]pyridin-5(4H)-yl)methanone] it was 1 to 5 µM.
Turning to `O=C(c1cnn2cc(N3CCC4(CC3)CC4)ccc12)N1CCc2[nH]cnc2C1c1nc2cc(F)ccc2o1` (stereo not drawn), the AC50 under setting [1] lay within 1 to 5 µM.
Same read-out and setting: in the case of `Cc1nnc(C(=O)N2CCc3[nH]cnc3C2c2nc3cc(F)ccc3o2)o1` (stereo not drawn) it was not below 5 µM.
